Data from paper PMC9785278, “3-(1,2,3-Triazol-4-yl)-β-Carbolines and 3-(1H-Tetrazol-5-yl)-β-Carbolines: Synthesis and Evaluation as Anticancer Agents” (Pharmaceuticals, 2022).

Key:
[1] = test system: HCT116 cells; assay: SRB antiproliferative assay, HCT116 (wt p53); assay type: cell-based; settings: Homo sapiens, HCT-116, 48 h of treatment, mean ± SEM
Description: (§1) Human colorectal adenocarcinoma HCT116 cell lines expressing p53 and its p53-null isogenic derivative (HCT116 p53^−/−) were provided by B. Vogelstein (The Johns Hopkins Kimmel Cancer Center, Baltimore, MD, USA). Human colorectal adenocarcinoma SW837, HT29, pancreatic carcinoma PANC-1, breast adenocarcinoma MCF-7, hepatocarcinoma HEPG2, melanoma A375, normal human foreskin fibroblasts HFF-1, and normal human colon CCD-18Co cell lines were purchased from ATCC (Rockville, MD, USA). The cancer cell lines were routinely cultured with RPMI-1640 medium from Biowest (HCT116, HCT116 p53^−/−, SW837, HT29, A375, MCF-7, HEPG-2, and […]) or DMEM with 5% glucose (HFF-1) and supplemented with 10% fetal bovine serum from Gibco (Alfagene, Lisboa, Portugal). All cells were maintained in a humidified incubator at 37 °C and 5% CO2.
(§2) Human cell lines were seeded in 96-well plates at a density of 5.0 × 10^3 (HCT116 p53 ^−/−, HCT116 wt, HT29, SW837, CCD-18Co, HFF-1, and MCF-7 cell lines) or 4.5 × 10^3 (A375, HEPG2 and PANC-1 cell lines) cells per well, for 24 h. Cells were treated with the appropriate compound, with serial dilutions ranging from 0.2 to 50 µM, for 48 h. Following the incubation, the effects on cell proliferation were evaluated through the SRB assay as stated by Ramos et al.. The IC50 values were determined using the software GraphPad Prism version 9.0.

[2] = test system: SW837 cells; assay: SRB antiproliferative assay, SW837; assay type: cell-based; settings: Homo sapiens, 48 h of treatment, mean ± SEM
Description: as §1, §2

[3] = test system: CCD-18Co cells; assay: SRB cytotoxicity assay, normal colon CCD-18Co; assay type: cell-based; settings: 48 h of treatment, normal human colon cell line, mean ± SEM
Description: as §1, §2

[4] = test system: HT29 cells; assay: SRB antiproliferative assay, HT29; assay type: cell-based; settings: Homo sapiens, HT-29, 48 h of treatment, mean ± SEM
Description: as §1, §2

[5] = test system: HCT116 p53−/− cells; assay: SRB antiproliferative assay, HCT116 p53−/−; assay type: cell-based; settings: Homo sapiens, HCT-116, 48 h of treatment, p53 knockout, mean ± SEM
Description: as §1, §2

[6] = test system: HEPG2 cells; assay: SRB antiproliferative assay, HEPG2; assay type: cell-based, human; settings: 48 h of treatment, mean ± SEM
Description: as §1, §2

[7] = test system: A375 cells; assay: SRB antiproliferative assay, A375; assay type: cell-based, human; settings: 48 h of treatment, mean ± SEM
Description: as §1, §2

[8] = test system: PANC-1 cells; assay: SRB antiproliferative assay, PANC-1; assay type: cell-based, human; settings: 48 h of treatment, mean ± SEM
Description: as §1, §2

[9] = test system: MCF-7 cells; assay: SRB antiproliferative assay, MCF-7; assay type: cell-based, human; settings: 48 h of treatment, mean ± SEM
Description: as §1, §2

[10] = test system: HFF-1 cells; assay: SRB assay, normal foreskin fibroblasts HFF-1; assay type: cell-based; settings: 48 h of treatment, normal human foreskin fibroblasts, mean ± SEM
Description: as §1, §2

[11] = test system: HCT116 cells; assay: Annexin-V apoptosis assay, HCT116; assay type: cell-based, human; settings: HCT116, 4.5 and 9.0 μM, 48 h, flow cytometry PI/Annexin-V
Protocol: The analysis of apoptotic cell death was performed essentially as described by Ramos et al.. Briefly, 1.5 × 10^5 HCT116 cells/well were seeded in 6-well plates, allowed to adhere overnight, and then treated with 4.5 and 9.0 μM of compound 1a. After 48 h of treatment, cells were stained using the Annexin V-FITC Apoptosis Detection Kit I from BD Biosciences (Enzifarma, Porto, Portugal), according to the manufacturer’s instructions. The AccuriTM C6 flow cytometer and the BD Accuri C6 software (BD Biosciences) were used.

[12] = test system: breast adenocarcinoma (MCF-7); design: method as in PMID 31247374; settings: cited from earlier work
[13] = test system: leukemia (K-562); design: method as in PMID 31247374; settings: cited from earlier work
[14] = test system: renal adenocarcinoma (786-0); design: method as in PMID 31247374; settings: cited from earlier work
[15] = test system: ovarian carcinoma (OVCAR-3); design: method as in PMID 31247374; settings: cited from earlier work

Row | SMILES | IC50 [1] [µM] | IC50 [2] [µM] | IC50 [3] [µM] | IC50 [4] [µM] | IC50 [5] [µM] | melting point [°C] | also measured
1 | COc1ccc(-c2nc(-c3nnnn3Cc3ccccc3)cc3c2[nH]c2ccccc23)cc1 [1b] | 4.3 ± 0.08 | 25 ± 1.63 | 3.4 ± 0.29 | 5.9 ± 1.19 | 4.2 ± 0.31 | – | –
2 | CN(C)c1ccc(-c2nc(-c3cn(-c4ccc(Cl)cc4)nn3)cc3c2[nH]c2ccccc23)cc1 [13d, 3-(1-(p-Chlorophenyl)-1H-1,2,3-triazol-4-yl)-1-(p-dimethylaminophenyl)-β-carboline] | > 50 | > 50 | > 50 | > 50 | > 50 | 244.2 to 245.6 | –
3 | COc1cc([C@@H]2c3cc4c(cc3[C@@H](O[C@@H]3O[C@@H]5CO[C@@H](C)O[C@H]5[C@H](O)[C@H]3O)[C@H]3COC(=O)[C@H]23)OCO4)cc(OC)c1O [Etoposide, reference compound] | 0.6 ± 0.05 | 0.9 ± 0.07 | 0.5 ± 0.07 | 0.7 ± 0.1 | 0.9 ± 0.07 | – | IC50 ([6]; Homo sapiens, HepG2, 48 h): 1.7 ± 0.2 µM; IC50 ([7]; Homo sapiens, A-375, 48 h): 0.9 ± 0.07 µM; IC50 ([8]; Homo sapiens, PANC-1, 48 h): 3.1 ± 0.05 µM; IC50 ([9]; Homo sapiens, MCF7, 48 h): 2.1 ± 0.03 µM; IC50 [10]: 1.1 ± 0.01 µM
4 | c1ccc(Cn2nnnc2-c2cc3c([nH]c4ccccc43)c(-c3ccccc3)n2)cc1 [1a] | 4.5 ± 0.05 | 44 ± 0.82 | 26 ± 0.82 | 9 ± 0.55 | 4.6 ± 0.43 | – | Apoptotic cell death (Annexin-positive cells) [11]: associated with apoptotic cell death; IC50 ([6]; listed as C00001): 7.5 ± 1.27 µM; IC50 ([6]; Homo sapiens, HepG2, 48 h): < 8 µM; IC50 ([7]; listed as C00001): 5.6 ± 0.2 µM; IC50 ([7]; Homo sapiens, A-375, 48 h): < 8 µM; IC50 [12]: 4.4 µM; IC50 ([8]; listed as C00001): 4 ± 0.4 µM; IC50 ([8]; Homo sapiens, PANC-1, 48 h): < 8 µM; IC50 ([9]; listed as C00001): 7.7 ± 0.7 µM; IC50 ([9]; Homo sapiens, MCF7, 48 h): < 8 µM; IC50 [10]: 29 ± 1.5 µM
5 | O=[N+]([O-])c1cccc(-c2nc(-c3cn(-c4ccc(Cl)cc4)nn3)cc3c2[nH]c2ccccc23)c1 [13e, 3-(1-(p-Chlorophenyl)-1H-1,2,3-triazol-4-yl)-1-(m-nitrophenyl)-β-carboline] | > 50 | > 50 | > 50 | > 50 | > 50 | 237.3 to 239.1 | –
6 | COC(=O)c1cc2c([nH]c3ccccc32)c(-c2ccc(OC)cc2)n1 [14b] | > 50 | – | – | – | > 50 | – | –
7 | Clc1ccc(-n2cc(-c3cc4c([nH]c5ccccc54)c(-c4ccccc4)n3)nn2)cc1 [13a, 3-(1-(p-Chlorophenyl)-1H-1,2,3-triazol-4-yl)-1-phenyl-β-carboline] | 39 ± 2.16 | > 50 | > 50 | > 50 | 43 ± 0.82 | 207.5 to 207.9 | –
8 | Clc1ccc(-n2cc(-c3cc4c([nH]c5ccccc54)c(-c4ccccc4Cl)n3)nn2)cc1 [13f, 3-(1-(p-Chlorophenyl)-1H-1,2,3-triazol-4-yl)-1-(o-chlorophenyl)-β-carboline] | > 50 | > 50 | > 50 | > 50 | > 50 | 219.7 to 221.3 | –
9 | COC(=O)c1cc2c([nH]c3ccccc32)c(-c2ccccc2Cl)n1 [14e] | > 50 | – | – | – | > 50 | – | –
10 | Fc1ccc(-c2nc(-c3cn(-c4ccc(Cl)cc4)nn3)cc3c2[nH]c2ccccc23)cc1 [13b, 3-(1-(p-Chlorophenyl)-1H-1,2,3-triazol-4-yl)-1-(p-fluorophenyl)-β-carboline] | > 50 | > 50 | > 50 | > 50 | > 50 | 237.3 to 238.1 | –
11 | Fc1ccc(-c2nc(-c3nnnn3Cc3ccccc3)cc3c2[nH]c2ccccc23)cc1 [1c] | 3.4 ± 0.16 | 29 ± 3.74 | 7.5 ± 0.16 | 9.6 ± 1.18 | 3.3 ± 0.73 | – | IC50 [13]: < 1 µM; IC50 [12]: < 1 µM; IC50 [14]: < 1 µM; IC50 [15]: < 1 µM
12 | COC(=O)c1cc2c([nH]c3ccccc32)c(-c2ccc(N(C)C)cc2)n1 [14c] | 15 ± 1.41 | – | – | – | 18 ± 0.47 | – | –
13 | Fc1ccc(-c2nc(-c3nnn[nH]3)cc3c2[nH]c2ccccc23)cc1 [1d] | – | – | – | – | – | – | IC50 [15]: 0.27 µM
14 | COC(=O)c1cc2c([nH]c3ccccc32)c(-c2ccccc2)n1 [14a] | > 50 | – | – | – | > 50 | – | –
15 | COc1ccc(-c2nc(-c3cn(-c4ccc(Cl)cc4)nn3)cc3c2[nH]c2ccccc23)cc1 [13c, 3-(1-(p-Chlorophenyl)-1H-1,2,3-triazol-4-yl)-1-(p-methoxyphenyl)-β-carboline] | 32 ± 2.45 | > 50 | > 50 | > 50 | > 50 | 219.7 to 221.3 | –
16 | COC(=O)c1cc2c([nH]c3ccccc32)c(-c2cccc([N+](=O)[O-])c2)n1 [14d] | > 50 | – | – | – | > 50 | – | –
